Where two headings read alike, the source gives them in different places.
Assays:
[1] = tested on: P. falciparum female gametocytes; assay: P. falciparum female gametogenesis assay (Pf FGAA); conditions: 1: YES; 0: NO; >10-fold selectivity over cytotox
[2] = tested on: P. falciparum female gametocytes; parameters: method as in Miguel-Blanco et al 2017; conditions: ref Miguel-Blanco et al 2017; read-out: Pf FGAA IC50; cited from earlier work
[3] = tested on: HepG2 cells; assay: HepG2 cytotoxicity assay
In short: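 Percent inhibition derived from fluorescent viability readout, normalised to DMSO (negative) and 50 μM doxorubicin (positive). Compound incubation lasted 48 h at 37°C, 5% CO2, with 2,500 HepG2 cells/well in MEM plus 10% FBS and 1% NEAA.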

[4] = tested on: P. berghei ookinete development
[5] = tested on: HepG2 cells; conditions: HepG2; ref Miguel-Blanco et al 2017; cited from earlier work
[6] = tested on: 3D7-strain P. falciparum asexual parasites; assay: P. falciparum asexual growth inhibition assay (Pf GIA); format: cell-based, Plasmodium falciparum; conditions: dose response confirmation; read-out: Pf asexual growth inhibition assays IC50
In short: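 Read-out was lactate dehydrogenase activity measured by absorbance at 650 nm after freezing and thawing, against 50 μM chloroquine and DMSO controls. Before that, asexual 3D7 cultures (0.25% parasitemia, 2% hematocrit) had 72 h dose-response compound exposure at 37°C in 5% CO2/5% O2/90% N2; three independent replicates averaged.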

[7] = unified HepG2 cytotoxicity across the three screens

SMILES	Is compound selective in assay? Pf FGAA active? [1]	IC50 [2] [nM]	Unified cytotox [3, 7] [µM]	other results
COc1ccc(NC(=O)c2cccc(Br)c2)cc1N1CCN(CCCCCCCN2CCN(c3cc(NC(=O)c4cccc(Br)c4)ccc3OC)CC2)CC1.Cl [TCMDC-139020]	0 (0: NO)	1060	6.03	
Oc1ccc2[nH]cc(C3CCN(CCCNCc4ccc(-c5ccccc5)cc4)CC3)c2c1 [TCMDC-139047]	0 (0: NO)	1440	5.62	
Cl.Nc1c2c(nc3ccc(NC(=O)CCCCCCc4ccccc4)cc13)CCCC2 [TCMDC-139056]	0 (0: NO)	2380	5.42	
COC(=O)c1ccc(-c2ccc(-c3cccnc3)cc2C)cc1 [TCMDC-139074]	0 (0: NO)	590	3.63	
c1ccc(C23N=C(Nc4nc5ccccc5[nH]4)NC2(c2ccccc2)NC(Nc2nc4ccccc4[nH]2)=N3)cc1 (stereo not shown) [TCMDC-139082]	1 (1: YES)	140	58.90	
COc1cccc(C23N=C(Nc4nc5ccccc5[nH]4)NC2(c2cccc(OC)c2)NC(Nc2nc4ccccc4[nH]2)=N3)c1 (stereo not shown) [TCMDC-139087]	1 (1: YES)	90	40.74	
Clc1cccc(C23N=C(Nc4nc5ccccc5[nH]4)NC2(c2ccccc2)NC(Nc2nc4ccccc4[nH]2)=N3)c1 (stereo not shown) [TCMDC-139089]	1 (1: YES)	150	42.76	
c1ccc(-c2nc(Nc3nc4ccccc4[nH]3)[nH]c2-c2ccccc2)cc1 [TCMDC-139099]	1 (1: YES)	580	10.98	
Cc1cc2nc(N=C3NC4(c5ccccn5)NC(=Nc5nc6cc(C)c(C)cc6[nH]5)NC4(c4ccccn4)N3)[nH]c2cc1C.O=C(O)C(F)(F)F (stereo not shown) [TCMDC-139105]	0 (0: NO)	5340	35.91	
CN1CCN(c2cc3c(cc2Cl)CCN3C(=O)Nc2ccc(NC(=O)c3ccc(C(F)(F)F)cc3)cc2)CC1.Cl [TCMDC-139270]	0 (0: NO)	690	3.99	
CC(NCCc1cccc(Cl)c1)C(O)c1ccc(OCCCCCCOc2ccc(C(O)C(C)NCCc3cccc(Cl)c3)cc2)cc1 (stereo not shown) [TCMDC-139334]	0 (0: NO)	1000	2.63	
Cc1cc(N)c2cc(NC(=O)/C=C/c3ccc([N+](=O)[O-])cc3)ccc2n1 [TCMDC-139335]	0 (0: NO)	2690	5.37	
Cc1cc(N)c2cc(NC(=O)c3cc(C(F)(F)F)cc(C(F)(F)F)c3)ccc2n1.Cl [TCMDC-139377]	0 (0: NO)	860	2.60	
O=C(Nc1cc(Cl)c(Cl)cc1NC(=O)c1cccc(-c2ccccc2)c1O)c1cccc(-c2ccccc2)c1O [TCMDC-139548]	0 (0: NO)	1090	3.09	
COc1ccc2nc(N=C3NC4(c5ccccc5)NC(=Nc5nc6ccc(OC)cc6[nH]5)NC4(c4ccccc4)N3)[nH]c2c1.O=C(O)C(F)(F)F (stereo not shown) [TCMDC-139632]	1 (1: YES)	120	62.72	
CC(Cc1ccc(NS(=O)(=O)c2ccc(CC(C)NCCc3cccc(Cl)c3)cc2)cc1)NCCc1cccc(Cl)c1 (stereo not shown) [TCMDC-139797]	0 (0: NO)	1840	4.37	
CC(Cc1ccc(NC(=O)c2ccc(CC(C)NCc3ccc(Cl)cc3)cc2)cc1)NCCc1cccc(Cl)c1 (stereo not shown) [TCMDC-139810]	0 (0: NO)	860	4.03	
CC(Cc1ccc(NC(=O)c2ccc(CNCCCCc3ccccc3)cc2)cc1)NCCc1cccc(Cl)c1.Cl (stereo not shown) [TCMDC-139866]	0 (0: NO)	1120	1.97	
CC(C)(CN)c1nc(-c2ccc(Cl)c(O)c2)c(-c2ccncc2)[nH]1.Cl [TCMDC-140369]		940		% inhibition, Replicate A ([4]; primary screen at 1 μM, replicate A): 54.47%; % inhibition, Replicate B ([4]; primary screen at 1 μM, replicate B): 53.78%; IC50 ([4]; read-out: Pb ODA IC50, this manuscript): 510 nM; IC50 ([4]; read-out: Pb Ookinete development assay IC50, dose response confirmation): 514 nM; HepG2 cytoxicity (Pf FGAA screen) [5]: 2.16 µM; IC50 [6]: 194 nM; HepG2 cytoxicity (Pb ODA, this manuscript) ([3]; HepG2, this manuscript): 1.66 µM; Unified cytotox ([3]; HepG2 values of the three screens unified): 1.91 µM; IC50 ([3]; read-out: HepG2 cytotoxicity assay IC50, dose response confirmation): 1660 nM

Reference: publication PMC6753678, “Fueling Open Innovation for Malaria Transmission-Blocking Drugs: Hundreds of Molecules Targeting Early Parasite Mosquito Stages” (Frontiers in Microbiology, 2019)
